# Data: US9255248B2, “Method of producing erythrocytes without feeder cells” (Anthrogenesis Corporation, priority 2009, dated 2016)
# How the values were obtained:
# [1] = system: human UCB derived CD34+ cells; test: Short-term serum-free, cytokine supplemented expansion of UCB derived CD34+ cells with pomalidomide; type: cell-based; details: for CD34+ phenotype in the expanded population / CD133 level of expanded CD34+ cells / expanded CD34+ cells that are CD38 negative / total nucleated cell expansion: pomalidomide 2.7 μg/mL, 12 days
# Experimental: The ability of pomalidomide to enhance the expansion of human UCB derived CD34^+ cells in a short-term serum-free, cytokine supplemented culture system was evaluated. CD34^+ progenitor cells were enriched from cryopreserved UCB units to >90% purity and seeded (104 CD34^+ cells) in 1 mL of growth medium, which consists of IMDM plus serum substitute BIT (BSA, recombinant human insulin and transferrin, 20%), in the presence of SCF (50 ng/mL), Flt-3 ligand (50 ng/mL), and IL-3 (10 ng/mL). Pomalidomide, dissolved in DMSO, was supplemented at 2.7 μg/mL. The culture was incubated at 37° C., 5% CO2 for 12 days, with fresh medium added at day 7. Pomalidomide-free cultures with or without DMSO (0.05% v/v) were used as controls.
# CD34+ cells = test: Scaled-up pomalidomide-based CD34+ expansion in gas-permeable culture bag; type: cell-based, human
# Experimental: CD34^+ cells were seeded in 10^4/mL pomalidomide-supplemented medium in a flexible, gas-permeable fluorocarbon culture bag (American Fluoroseal). After 7 days of incubation, the culture was centrifuged and exchanged with fresh pomalidomide-supplemented medium at three times the initial volume. By day 12, TNC and CD34^+ expansion were 350 (range: 250-700) and 200 (range: 100-450) fold, respectively (FIG. 4). Viability was 86% (range: 80-90%) by trypan blue. A total of 20 million CD34^+ cells were harvested.
# [2] = day 12, culture bag, seeded 10^4/mL
compound,measurement,setting,value
"Nc1cccc2c1C(=O)N(C1CCC(=O)NC1=O)C2=O (stereo not shown) [pomalidomide, 4-(Amino)-2-(2,6-dioxo(3-piperidyl))-isoindoline-1,3-dione]",CD34+ expression in the expanded population versus control,[1]; first experiment,significantly higher CD34^+ expression
same,CD38 expression on cultured cells,[1]; first experiment,appeared to down-regulate CD38 expression
same,cumulative colony forming units relative to expanded controls,[1]; first experiment,substantial improvement
same,CD34+ phenotype in the expanded population,[1]; first experiment,40-60%
same,CD133 level of expanded CD34+ cells,[1]; first experiment,15%
same,expanded CD34+ cells that are CD38 negative,[1]; first experiment,95%
same,total nucleated cell expansion,[1]; first experiment,200-350 fold
same,CD34+ phenotype in the expanded population,[1]; second similar experiment,40-60%
same,CD133 level of expanded CD34+ cells,[1]; second similar experiment,11.5%
same,expanded CD34+ cells that are CD38 negative,[1]; second similar experiment,97%
same,total nucleated cell expansion,[1]; second similar experiment,200-350 fold
same,CD34+ expression in the expanded population versus control,[1]; second similar experiment,significantly higher CD34^+ expression
same,CD38 expression on cultured cells,[1]; second similar experiment,appeared to down-regulate CD38 expression
same,cumulative colony forming units relative to expanded controls,[1]; second similar experiment,substantial improvement
same,ex-vivo expansion of placental derived CD34+ progenitors,CD34+ cells,significantly enhanced
same,Viability by trypan blue,"CD34+ cells; day 12, culture bag",86% (range: 80-90%)
same,total CD34+ cells harvested,"CD34+ cells; day 12, culture bag",20 million
same,CD34+ expansion,CD34+ cells; [2],200 (range: 100-450) fold
same,TNC expansion,CD34+ cells; [2],350 (range: 250-700) fold
